Results taken from PubChem BioAssay (NCI).
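The compound was tested at five concentrations on cells cultured in 96-well plates, with a 48-hour exposure period. GI50 marks 50% less growth. TGI is the concentration that stops growth completely.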

Columns and labels:
Test in all cases: DTP human tumour cell line panel, 48 h
HOP-62 NSCLC = tested on: HOP-62 NSCLC
OVCAR-5 ovarian = tested on: OVCAR-5 ovarian
SK-MEL-2 melanoma = tested on: SK-MEL-2 melanoma
IGROV1 ovarian = tested on: IGROV1 ovarian
CAKI-1 renal = tested on: CAKI-1 renal
UACC-257 melanoma = tested on: UACC-257 melanoma
SK-MEL-28 melanoma = tested on: SK-MEL-28 melanoma
OVCAR-3 ovarian = tested on: OVCAR-3 ovarian
SNB-75 CNS = tested on: SNB-75 CNS
HCT-116 colon = tested on: HCT-116 colon

Row | SMILES | GI50 (HOP-62 NSCLC) [µM] | TGI (HOP-62 NSCLC) [µM] | GI50 (OVCAR-5 ovarian) [µM] | TGI (OVCAR-5 ovarian) [µM] | GI50 (SK-MEL-2 melanoma) [µM] | TGI (SK-MEL-2 melanoma) [µM] | GI50 (IGROV1 ovarian) [µM] | TGI (IGROV1 ovarian) [µM] | GI50 (CAKI-1 renal) [µM] | TGI (CAKI-1 renal) [µM] | GI50 (UACC-257 melanoma) [µM] | TGI (UACC-257 melanoma) [µM] | GI50 (SK-MEL-28 melanoma) [µM] | TGI (SK-MEL-28 melanoma) [µM] | GI50 (OVCAR-3 ovarian) [µM] | TGI (OVCAR-3 ovarian) [µM] | GI50 (SNB-75 CNS) [µM] | TGI (SNB-75 CNS) [µM] | GI50 (HCT-116 colon) [µM] | TGI (HCT-116 colon) [µM]
1 | COc1nc2c(cc1S(=O)(=O)c1ccccc1)CCc1c-2cnn1-c1ccccc1Cl | > 100 | > 100 | > 100 | > 100 | 71.7 | > 100 | > 100 | > 100 | 5.2 | > 100 | 21.8 | > 100 | > 100 | > 100 | 8.17 | > 100 | 5.19 | > 100 | 5.31 | > 100
2 | NS(=O)(=O)c1ccc(-n2nc(-c3ccc(Br)cc3)ccc2=O)cc1 | > 10 | > 10 | > 10 | > 10 | > 10 | > 10 | > 10 | > 10 | > 10 | > 10 | > 10 | > 10 | > 10 | > 10 | > 10 | > 10 | > 10 | > 10 | > 10 | > 10
3 | COc1ccc(/C=C(/C(=O)O)c2cc(OC)c(OC)c(OC)c2)cc1 |  | > 100 |  | > 100 |  | > 100 |  | > 100 |  | > 100 |  | > 100 |  | > 100 |  | 64.1 |  | 79 |  | > 100
4 | COc1ccc(N=Cc2cc(OC)c(OC)c(OC)c2)cc1 |  | > 100 |  | > 100 |  | > 100 |  | > 100 | > 100 | > 100 |  | > 100 |  | > 100 | > 100 | > 100 |  | > 100 |  | > 100
5 | COc1ccccc1NC(=O)c1ccc(/C=C/C(=O)c2nccn2C)cc1 | 0.762 | 2.37 | 0.619 | 1.73 | 1.9 | 10.8 | 0.523 | 1.34 | 0.453 | 1.32 | 0.972 | 10.1 | 0.57 | 1.44 | 0.459 | 0.988 | 0.342 | 1.09 | 0.408 | 0.89
6 | Cn1cc(C2=C(c3ccc(OC[C@@H](O)CO)cc3)C(=O)NC2=O)c2ccccc21 | > 25 | > 25 | > 25 | > 25 | > 25 | > 25 | > 25 | > 25 | > 25 | > 25 | > 25 | > 25 | > 25 | > 25 | > 25 | > 25 | 2.23 | > 25 | > 25 | > 25
7 | C[Si](C)(C)c1ccc(CC2(Cc3ccc([Si](C)(C)C)cc3)CCNC2)cc1 |  | 6 |  | 15.4 |  | 3.41 |  | 7.12 |  | 5.29 |  | 5.41 |  | 5.05 |  | 3.93 |  | 7.67 |  | 3.17
8 | O=C1NC(=O)C2C(=O)NC(=O)C1C2(c1ccccc1)c1ccc(Cl)cc1 (stereo not given) |  | > 100 |  | > 100 |  | > 100 |  | > 100 |  | > 100 |  | > 100 |  | > 100 |  | > 100 |  | > 100 |  | 
9 | CN(C)CCNc1nc2ccccc2c2[nH]c3ccccc3c12 | 0.203 | 1.8 | 1.56 | 21.9 | 2.44 | 20.9 | 0.97 | > 31.7 | 0.344 | 1.76 | 3.74 | 16.9 | 1.98 | 6.44 | 0.438 | 2.01 | 1.22 | 3.2 | 0.106 | 2.25
10 | CCCCn1/c(=N/C(=S)N(C)C)ss/c1=N\C(=S)N(C)C |  | > 100 |  | > 100 |  | > 100 |  | > 100 |  | > 100 |  | > 100 |  | > 100 |  |  |  | > 100 |  | > 100
11 | CNC(=O)c1cc(Oc2ccc3c(c2)sc2nc(-c4ccc(N)cc4)cn23)ccn1 | 0.346 | > 100 |  | > 100 | 0.332 | > 100 | 0.609 | > 100 | 0.329 | > 100 |  |  | 4.99 | > 100 | 0.198 | 0.67 | 0.286 | > 100 | 0.211 | > 100
12 | O=C(/C=C(\[O-])c1ccccc1)CCCCCCC(=O)/C=C(\[O-])c1ccccc1.O=C(/C=C(\[O-])c1ccccc1)CCCCCCC(=O)/C=C(\[O-])c1ccccc1.O=C(/C=C(\[O-])c1ccccc1)CCCCCCC(=O)/C=C(\[O-])c1ccccc1.[La+3].[La+3] | > 50 | > 50 | > 50 | > 50 | > 50 | > 50 | > 50 | > 50 | > 50 | > 50 | > 50 | > 50 | > 50 | > 50 |  |  | 9.33 | 48.2 | > 50 | > 50
